According to US9451771B2, “Compositions and methods to attract the brown marmorated stink bug (BMSB), Halyomorpha halys” (United States of America as Represented by the Secretary of …, priority 2012, dated 2016):

Test system: brown marmorated stink bug (BMSB), Halyomorpha halys
Test: Synergy trials for attraction of BMSB to #10 and MDT, black pyramid traps
Assay type: in vivo
Experimental: Synergy trials for attraction of BMSB to #10 and methyl (2E,4E,6Z)-decatrieonate (MDT): From 6 Apr. to 23 Oct. […] Va. (3 replicates), we tested the following four treatments for attraction of BMSB adults and nymphs, using a full-sized black pyramid trap adapted for BMSB (see above): (1) #10 lure (Table 4) replaced every 2 weeks; (2) #3 lure, MDT, (Sterling International, Spokane, Wash.; ˜119 mg loading; see text below), replaced every 4 weeks; (3) #14 lure, in which #10 and MDT lures hung together in trap, replaced as above for each lure; and (4) no lure (control).
The MDT lure obtained from Sterling International was extracted with pentane which yielded 420 mg of crude product. According to TLC analysis on silica using dichloromethane, the extracted material contained MTD (Rf 0.46) plus unknown chemical(s) with Rf 0.20. This material was flash chromatographed on silica with hexane:dichloromethane, 1:1, to obtain 119 mg of pure MDT. The identity of MDT was re-confirmed by comparison of the gas chromatographic retention time and mass-spectrum with those of a standard prepared according to Khrimian (Khrimian, A., Tetrahedron, 61: 3651-3657 (2005)).
Traps were checked and collected twice-weekly in Beltsville, and weekly in Arden, as described previously, and the treatments were re-randomized at each collection. Field trapping results were summed by approximately two-week intervals, and the totals for each replicate analyzed by ANOVA and additionally with Tukey's HSD multiple comparisons at α=0.05 if the overall 1-way ANOVA F-test was significant at α=0.05. In addition, a two-way ANOVA with interaction was tested to determine if the combined lure provoked a different level of attractiveness (a significant interaction) than would be expected from a combination of the attractiveness of each separate lure type. Such an interaction, with numbers exceeding the expected attraction for the combined lure, represents a true synergy of the two lures.

[1] = Arden, WV 2012, 15May-23 Oct, TOTAL
[2] = Arden, WV 2012, Aug2-13, 11-day total
[3] = Arden, WV 2012, Aug13-27, 14-day total
[4] = Arden, WV 2012, Aug27-Sep10, 14-day total
[5] = Arden, WV 2012, July2-17, 15-day total
[6] = Arden, WV 2012, July17-Aug2, 16-day total
[7] = Arden, WV 2012, June4-19, 15-day total
[8] = Arden, WV 2012, June19-July2, 13-day total
[9] = Arden, WV 2012, May 16-23, 7-day total
[10] = Arden, WV 2012, May23-Jun4, 14-day total
[11] = Arden, WV 2012, Oct9-23, 14-day total
[12] = Arden, WV 2012, Sep10-24, 14-day total
[13] = Arden, WV 2012, Sep24-Oct9, 17-day total
[14] = Arden, WV, 3 replicates, 20 May through 23 Oct. 2012
[15] = Arden, WV, 20 May through 23 Oct. 2012
[16] = Beltsville, MD 2012, 4-22 May, 18-day total, 4 traps/trtmt
[17] = Beltsville, MD 2012, 5-19 June, 14-day total, 4 traps/trtmt
[18] = Beltsville, MD 2012, 5-23Oct, 18-day total, 4 traps/trtmt
[19] = Beltsville, MD 2012, 6-20 April, 14-day total, 4 traps/trtmt
[20] = Beltsville, MD 2012, 6APR-23OCT, Total
[21] = Beltsville, MD 2012, 6APR-23OCT, Total, 4 traps/trtmt
[22] = Beltsville, MD 2012, 7-21 Sept, 14-day total, 4 traps/trtmt
[23] = Beltsville, MD 2012, 10-24 Aug, 14-day total, 4 traps/trtmt
[24] = Beltsville, MD 2012, 13-27 July
[25] = Beltsville, MD 2012, 13-27 July, 14-day total, 4 traps/trtmt
[26] = Beltsville, MD 2012, 19-29 June
[27] = Beltsville, MD 2012, 19-29 June, 10-day total, 4 traps/trtmt
[28] = Beltsville, MD 2012, 20 April-4 May, 14-day total, 4 traps/trtmt
[29] = Beltsville, MD 2012, 21Sep-5 Oct
[30] = Beltsville, MD 2012, 21Sep-5 Oct, 14-day total, 4 traps/trtmt
[31] = Beltsville, MD 2012, 24Aug-7Sept
[32] = Beltsville, MD 2012, 24Aug-7Sept, 14-day total, 4 traps/trtmt
[33] = Beltsville, MD 2012, 27 July-10 Aug
[34] = Beltsville, MD 2012, 27 July-10 Aug, 14-day total, 4 traps/trtmt
[35] = Beltsville, MD 2012, 29 June-13 July
[36] = Beltsville, MD 2012, 29 June-13 July, 14-day total, 4 traps/trtmt
[37] = Beltsville, MD, 4 replicates, 6 April through 23 Oct. 2012
[38] = Beltsville, MD, 6 April through 23 Oct. 2012

CCC\C=C/C=C/C=C/C(=O)OC [Lure #3, Methyl (2E,4E,6Z)-decatrienoate]
adults captured [1]: 999 | adults captured (% of total) [1]: 17.9% | nymphs captured [1]: 386 | nymphs captured (% of total) [1]: 18.4% | adults captured (% of total) (Arden, WV 2012, Aug2-13): 10.40% | nymphs captured (% of total) (Arden, WV 2012, Aug2-13): 9.5% | adults captured [2]: 7 | nymphs captured [2]: 38 | adults captured (% of total) (Arden, WV 2012, Aug13-27): 3.10% | nymphs captured (% of total) (Arden, WV 2012, Aug13-27): 10.0% | adults captured [3]: 4 | nymphs captured [3]: 51 | adults captured (% of total) (Arden, WV 2012, Aug27-Sep10): 1.60% | nymphs captured (% of total) (Arden, WV 2012, Aug27-Sep10): 42.8% | adults captured [4]: 3 | nymphs captured [4]: 68 | adults captured (% of total) (Arden, WV 2012, July2-17): 0% | nymphs captured (% of total) (Arden, WV 2012, July2-17): 5.0% | adults captured [5]: 0 | nymphs captured [5]: 8 | adults captured (% of total) (Arden, WV 2012, July17-Aug2): 0% | nymphs captured (% of total) (Arden, WV 2012, July17-Aug2): 22.2% | adults captured [6]: 0 | nymphs captured [6]: 8 | adults captured (% of total) (Arden, WV 2012, June4-19): 0% | adults captured [7]: 0 | nymphs captured [7]: 0 | adults captured (% of total) (Arden, WV 2012, June19-July2): 0% | nymphs captured (% of total) (Arden, WV 2012, June19-July2): 0% | adults captured [8]: 0 | nymphs captured [8]: 0 | adults captured (% of total) (Arden, WV 2012, May 16-23): 0% | adults captured [9]: 0 | nymphs captured [9]: 0 | adults captured (% of total) (Arden, WV 2012, May23-Jun4): 0% | adults captured [10]: 0 | nymphs captured [10]: 0 | adults captured (% of total) (Arden, WV 2012, Oct9-23): 28.90% | nymphs captured (% of total) (Arden, WV 2012, Oct9-23): 60.5% | adults captured [11]: 120 | nymphs captured [11]: 20 | adults captured (% of total) (Arden, WV 2012, Sep10-24): 12.70% | nymphs captured (% of total) (Arden, WV 2012, Sep10-24): 23.9% | adults captured [12]: 333 | nymphs captured [12]: 135 | adults captured (% of total) (Arden, WV 2012, Sep24-Oct9): 25.20% | nymphs captured (% of total) (Arden, WV 2012, Sep24-Oct9): 25.7% | adults captured [13]: 532 | nymphs captured [13]: 58 | Season-long total captures of BMSB adults [14]: 999 b | Season-long total captures of BMSB nymphs [14]: 386 b | Season-long captures of BMSB adults, share of TOTAL [15]: 17.9% | Season-long captures of BMSB nymphs, share of TOTAL [15]: 18.4% | adults captured (% of total) (Beltsville, MD 2012, 4-22 May): 2.10% | adults captured [16]: 2 | nymphs captured [16]: 0 | adults captured (% of total) (Beltsville, MD 2012, 5-19 June): 4.20% | nymphs captured (% of total) (Beltsville, MD 2012, 5-19 June): 25.10% | adults captured [17]: 6 | nymphs captured [17]: 63 | adults captured (% of total) (Beltsville, MD 2012, 5-23Oct): 17.50% | nymphs captured (% of total) (Beltsville, MD 2012, 5-23Oct): 35.70% | adults captured [18]: 6 | nymphs captured [18]: 5 | adults captured (% of total) (Beltsville, MD 2012, 6-20 April): 10.20% | adults captured [19]: 6 | nymphs captured [19]: 0 | adults captured (% of total) [20]: 10.40% | nymphs captured (% of total) [20]: 28.30% | adults captured [21]: 1203 | nymphs captured [21]: 1823 | adults captured (% of total) (Beltsville, MD 2012, 7-21 Sept): 20.30% | nymphs captured (% of total) (Beltsville, MD 2012, 7-21 Sept): 30.00% | adults captured [22]: 314 | nymphs captured [22]: 36 | adults captured (% of total) (Beltsville, MD 2012, 10-24 Aug): 4.60% | nymphs captured (% of total) (Beltsville, MD 2012, 10-24 Aug): 14.80% | adults captured [23]: 7 | nymphs captured [23]: 212 | adults captured (% of total) [24]: 0.00% | nymphs captured (% of total) [24]: 20.30% | adults captured [25]: 0 | nymphs captured [25]: 13 | adults captured (% of total) [26]: 0.00% | nymphs captured (% of total) [26]: 1.30% | adults captured [27]: 0 | nymphs captured [27]: 6 | adults captured (% of total) (Beltsville, MD 2012, 20 April-4 May): 21.90% | adults captured [28]: 7 | nymphs captured [28]: 0 | adults captured (% of total) [29]: 27.90% | nymphs captured (% of total) [29]: 40.50% | adults captured [30]: 440 | nymphs captured [30]: 17 | adults captured (% of total) (Beltsville, MD 2012, 22 May-5 June): 2.90% | nymphs captured (% of total) (Beltsville, MD 2012, 22May-5June): 38.90% | adults captured (Beltsville, MD 2012, 22 May-5 June, 14-day total, 4 traps/trtmt): 3 | nymphs captured (Beltsville, MD 2012, 22May-5June, 14-day total, 4 traps/trtmt): 7 | adults captured (% of total) [31]: 22.20% | nymphs captured (% of total) [31]: 41.80% | adults captured [32]: 393 | nymphs captured [32]: 1018 | adults captured (% of total) [33]: 6.10% | nymphs captured (% of total) [33]: 30.80% | adults captured [34]: 14 | nymphs captured [34]: 406 | adults captured (% of total) [35]: 8.60% | nymphs captured (% of total) [35]: 14.50% | adults captured [36]: 5 | nymphs captured [36]: 40 | Season-long total captures of BMSB adults [37]: 1203 b | Season-long total captures of BMSB nymphs [37]: 1823 b | Season-long captures of BMSB adults, share of TOTAL [38]: 20.4% | Season-long captures of BMSB nymphs, share of TOTAL [38]: 28.3%
